Source: the supplement of paper PMC10307832

Experiments:
Experiment in all cases: relative viability (nuclei count vs DMSO), 5 days (fraction); higher = more cells survive
[1] = compound: CN(C)C/C=C/C(=O)Nc1cc2c(Nc3ccc(F)c(Cl)c3)ncnc2cc1O[C@H]1CCOC1 [Afatinib] + O=C(CCCCCCC(=O)Nc1ccccc1)NO [Vorinostat] (partner 1 µM)
In short: (§1)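 A single step with final 0.05% Triton X-100, 1% formaldehyde and 1 ug/ml Hoechst fixed the cells and stained nuclei 5 days after treatment. Lung cancer cell lines in 1536-well plates had been treated by pin tool the day after seeding with one drug alone or a fixed anchor-drug dose plus five library-drug doses (not always all listed) in √10 steps, and nuclei were counted on 4× images. Relative viability is the ratio of nuclei in treated wells to nuclei in vehicle wells, taken as the median of duplicate plates.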

[2] = compound: CN(C)C/C=C/C(=O)Nc1cc2c(Nc3ccc(F)c(Cl)c3)ncnc2cc1O[C@H]1CCOC1 [Afatinib] + Cc1nc(Nc2ncc(C(=O)Nc3c(C)cccc3Cl)s2)cc(N2CCN(CCO)CC2)n1 [Dasatinib] (partner 0.075 µM)
In short: as §1

[3] = compound: CN(C)C/C=C/C(=O)Nc1cc2c(Nc3ccc(F)c(Cl)c3)ncnc2cc1O[C@H]1CCOC1 [Afatinib] + CS(=O)(=O)N1CCN(Cc2cc3nc(-c4cccc5[nH]ncc45)nc(N4CCOCC4)c3s2)CC1 [Pictilisib] (partner 1 µM)
In short: as §1

[4] = compound: CN(C)C/C=C/C(=O)Nc1cc2c(Nc3ccc(F)c(Cl)c3)ncnc2cc1O[C@H]1CCOC1 [Afatinib] + C[C@@H](Oc1cc(-c2cnn(C3CCNCC3)c2)cnc1N)c1c(Cl)ccc(F)c1Cl [Crizotinib] (partner 1 µM)
In short: as §1

Row | Cell Line | relative viability ([1]; first compound 0.005 µM) | relative viability ([1]; first compound 0.01581 µM) | relative viability ([1]; first compound 0.05 µM) | relative viability ([1]; first compound 0.1581 µM) | relative viability ([1]; first compound 0.5 µM) | relative viability ([2]; first compound 0.005 µM) | relative viability ([2]; first compound 0.01581 µM) | relative viability ([2]; first compound 0.05 µM) | relative viability ([2]; first compound 0.1581 µM) | relative viability ([2]; first compound 0.5 µM) | relative viability ([3]; first compound 0.005 µM) | relative viability ([3]; first compound 0.01581 µM) | relative viability ([3]; first compound 0.05 µM) | relative viability ([3]; first compound 0.1581 µM) | relative viability ([3]; first compound 0.5 µM) | relative viability ([4]; first compound 0.005 µM) | relative viability ([4]; first compound 0.01581 µM) | relative viability ([4]; first compound 0.05 µM) | relative viability ([4]; first compound 0.1581 µM) | relative viability ([4]; first compound 0.5 µM)
1 | LXF-289 | 0.762 | 0.678 | 0.748 | 0.753 | 0.716 | 0.238 | 0.27 | 0.253 | 0.208 | 0.228 | 0.829 | 0.701 | 0.695 | 0.706 | 0.777 | 0.845 | 0.777 | 0.793 | 0.7 | 0.811
2 | NCI-H23 | 0.787 | 0.589 | 0.615 | 0.619 | 0.591 | 0.682 | 0.69 | 0.754 | 0.884 | 0.83 | 0.543 | 0.52 | 0.501 | 0.424 | 0.398 | 0.516 | 0.459 | 0.612 | 0.44 | 0.639
3 | NCI-H322M | 0.825 | 0.506 | 0.658 | 0.61 | 0.567 | 0.246 | 0.229 | 0.231 | 0.233 | 0.248 | 0.441 | 0.396 | 0.351 | 0.327 | 0.279 | 0.775 | 0.676 | 0.544 | 0.359 | 0.293
4 | NCI-H358 | 0.514 | 0.432 | 0.375 | 0.207 | 0.253 | 0.125 | 0.111 | 0.113 | 0.156 | 0.128 | 0.305 | 0.241 | 0.279 | 0.288 | 0.269 | 0.541 | 0.423 | 0.387 | 0.241 | 0.256
5 | NCI-H441 | 0.791 | 0.94 | 0.737 | 0.878 | 0.698 | 0.574 | 0.488 | 0.573 | 0.435 | 0.402 | 0.431 | 0.504 | 0.436 | 0.481 | 0.31 | 0.691 | 0.789 | 0.85 | 0.841 | 0.652
6 | NCI-H460 | 0.892 | 0.767 | 0.722 | 0.702 | 0.686 | 0.531 | 0.527 | 0.469 | 0.467 | 0.535 | 0.371 | 0.39 | 0.339 | 0.35 | 0.343 | 0.878 | 0.748 | 0.885 | 0.809 | 0.875
7 | NCI-H520 | 0.807 | 0.707 | 0.639 | 0.698 | 0.717 | 0.199 | 0.178 | 0.19 | 0.225 | 0.14 | 0.353 | 0.304 | 0.208 | 0.232 | 0.233 | 1.33 | 0.851 | 0.832 | 0.749 | 0.737
8 | NCI-H596 | 0.706 | 0.541 | 0.571 | 0.745 | 0.62 | 0.445 | 0.456 | 0.643 | 0.538 | 0.602 | 0.35 | 0.394 | 0.4 | 0.384 | 0.415 | 0.987 | 0.866 | 0.94 | 0.904 | 0.921
